In ChEMBL document CHEMBL5729210, “Benzodiazepine derivatives as RSV inhibitors” (2022):
“And” between values parts separate entries of the source, which are not always exact repeats. Identical values can stand only once.

Test: RSV-A Assay: The description is Japanese.
For `O=C1Nc2ccccc2C(c2ccccc2)=NC1Nc1nnc(-c2ncc(N3CCOCC3)cc2F)o1` (configuration not stated), the EC50 was < 400 nM.
For `O=C1Nc2ccccc2C(c2ccccc2)=NC1Nc1nnc(CCC(F)(F)F)o1` (configuration not stated), the EC50 was > 800 nM.
In the case of `O=C1Nc2ccccc2C(c2ccccc2)=NC1Nc1nnc(CCc2ccccc2)o1` (configuration not stated), the EC50 is reported as > 800 nM.
In the case of `O=C(O)c1ccc(-n2cncn2)cc1N1CCOCC1`, the EC50 is reported as “in the range around 600 nM”.
With `COC(=O)c1ncc(C#N)cc1N1CCOCC1` the EC50 was < 400 nM.
For `O=C1Nc2ccccc2C(c2ccccc2)=NC1Nc1nc2ccc(F)cc2o1` (configuration not stated), the EC50 was > 800 nM.
In the case of `CC(C)c1nnc(NC2N=C(c3ccccc3)c3ccccc3NC2=O)o1` (configuration not stated), the EC50 is reported as > 800 nM.
With `COC(=O)c1sc(Br)cc1N1CCOCC1` the EC50 was < 400 nM.
With `O=C1Nc2ccccc2C(c2ccccc2)=N[C@@H]1Nc1nnc(-c2ncc(C3CC3)cc2N2CCOCC2)o1` the EC50 was < 400 nM.
In the case of `O=C1Nc2ccccc2C(c2ccccc2)=NC1Nc1nnc(-c2ccc(N3CCOCC3)cc2)o1` (configuration not stated), the EC50 is reported as < 400 nM.
For `Cn1c(N2CCOCC2)c(-c2nnc(N[C@H]3N=C(c4ccccc4)c4ccccc4NC3=O)o2)ccc1=O`, the EC50 was < 400 nM.
For `O=C1Nc2ccccc2C(c2ccccc2)=N[C@@H]1Nc1nnc(-c2oc3ccccc3c2N2CCOCC2)o1`, the EC50 was < 400 nM.
For `Cc1nc(-c2nnc(NC3N=C(c4ccccc4)c4ccccc4NC3=O)o2)ccc1F` (configuration not stated), the EC50 was > 800 nM.
With `O=C1Nc2ccccc2C(c2ccccc2)=NC1Nc1nnc(-c2cc(F)ccc2N2CCOCC2)o1` (configuration not stated) the EC50 was “in the range around 600 nM”.
For `O=C1Nc2ccccc2C(c2ccccc2)=NC1Nc1nnc(-c2ccc(F)cc2N2CCOCC2)o1` (configuration not stated), the EC50 was < 400 nM.
In the case of `CCCc1nnc(NC2N=C(c3ccccc3)c3ccccc3NC2=O)o1` (configuration not stated), the EC50 is reported as > 800 nM.
For `O=C1Nc2ccccc2C(c2ccccc2)=N[C@@H]1Nc1nnc(-c2ccc(N3CCOCC3)cc2F)o1`, the EC50 was < 400 nM.
With `O=C1Nc2ccccc2C(c2ccccc2)=NC1Nc1nnc(-c2cnccc2N2CCOCC2)o1` (configuration not stated) the EC50 was “in the range around 600 nM”.
In the case of `O=C1Nc2ccccc2C(c2ccccc2)=N[C@@H]1Nc1nnc(-c2cnc(N3CCOCC3)cn2)o1`, the EC50 is reported as > 800 nM.
In the case of `O=C(O)c1ccncc1N1CCCCC1`, the EC50 is reported as > 800 nM.
In the case of `O=C1Nc2ccccc2C(c2ccccc2)=NC1Nc1nnc(-c2ccncc2N2CCOCC2)o1` (configuration not stated), the EC50 is reported as “in the range around 600 nM”.
With `Cn1cc(N2CCOCC2)c(-c2nnc(N[C@H]3N=C(c4ccccc4)c4ccccc4NC3=O)o2)n1` the EC50 was < 400 nM.
With `COCc1nnc(NC2N=C(c3ccccc3)c3ccccc3NC2=O)o1` (configuration not stated) the EC50 was > 800 nM.
In the case of `NNC(=O)c1ccc(N2CCOCC2)cc1C(F)(F)F`, the EC50 is reported as > 800 nM.
With `O=C1Nc2ccccc2C(c2ccccc2)=N[C@@H]1Nc1nnc(-c2cnc(N3CC4CCC(C3)O4)nc2)o1` the EC50 was > 800 nM.
With `COCCN(C)c1ccc(-c2nnc(NC3N=C(c4ccccc4)c4ccccc4NC3=O)o2)cc1` (configuration not stated) the EC50 was > 800 nM.
In the case of `O=C1Nc2ccccc2C(c2ccccc2)=N[C@H]1Nc1nnc(-c2ccccc2N2CCOCC2)o1`, the EC50 is reported as > 800 nM.
For `CCc1nc(N2CCOCC2)c(-c2nnc(N[C@H]3N=C(c4ccccc4)c4ccccc4NC3=O)o2)cc1C#N`, the EC50 was < 400 nM.
In the case of `O=C1Nc2ccccc2C(c2ccccc2)=NC1Nc1nc2cc(F)ccc2o1` (configuration not stated), the EC50 is reported as > 800 nM.
With `CCOC(=O)c1cnc(C2CC2)nc1N1CCOCC1` the EC50 was < 400 nM.
For `O=C1Nc2ccccc2C(c2ccccc2)=NC1Nc1nnc(-c2cccc(F)c2N2CCOCC2)o1` (configuration not stated), the EC50 was > 800 nM.
In the case of `N#Cc1cnc(N2CCOCC2)c(-c2nnc(N[C@H]3N=C(c4ccccc4)c4ccccc4NC3=O)o2)c1`, the EC50 is reported as < 400 nM.
In the case of `O=C1Nc2ccccc2C(c2ccccc2)=NC1Nc1nnc(C2CCCC2)o1` (configuration not stated), the EC50 is reported as > 800 nM.
With `O=C1Nc2ccccc2C(c2ccccc2)=NC1Nc1nnc(-c2ccc(N3CCCC3)cc2)o1` (configuration not stated) the EC50 was “in the range around 600 nM”.
With `O=C1Nc2ccccc2C(c2ccccc2)=N[C@H]1Nc1nnc(-c2ccc(N3CCOCC3)cc2)o1` the EC50 was > 800 nM.
For `O=C1Nc2ccccc2C(c2ccccc2)=N[C@H]1Nc1nnc(-c2ccc(N3CCOCC3)cc2F)o1`, the EC50 was > 800 nM.
With `O=C1Nc2ccccc2C(c2ccccc2)=NC1Nc1nnc(-c2ccc(-n3cccn3)cc2N2CCOCC2)o1` (configuration not stated) the EC50 was < 400 nM.
With `O=C1Nc2ccccc2C(c2ccccc2)=NC1Nc1nnc(-c2ncc(C(F)(F)F)cc2N2CCOCC2)o1` (configuration not stated) the EC50 was < 400 nM.
In the case of `O=C1Nc2ccccc2C(c2ccccc2)=NC1Nc1nnc(C2CCC2)o1` (configuration not stated), the EC50 is reported as > 800 nM.
In the case of `O=C1Nc2ccccc2C(c2ccccc2)=NC1Nc1nnc(-c2ccc(F)nc2N2CCOCC2)o1` (configuration not stated), the EC50 is reported as “in the range around 600 nM and < 400 nM”.
With `O=C1Nc2ccccc2C(c2ccccc2)=N[C@@H]1Nc1nnc(-c2ccccc2N2CCOCC2)o1` the EC50 was < 400 nM.
With `O=C1Nc2ccccc2C(c2ccccc2)=NC1Nc1nnc([C@H]2CCCO2)o1` (some centres not stated) the EC50 was > 800 nM.
For `Cc1ccc(C(=O)O)c(N2CCOCC2)n1`, the EC50 was < 400 nM.
With `O=C1Nc2ccccc2C(c2ccccc2)=NC1Nc1nnc(-c2ccc(N3CCOCC3)nc2)o1` (configuration not stated) the EC50 was < 400 nM.
For `O=C1Nc2ccccc2C(c2ccccc2)=N[C@@H]1Nc1nnc(-c2cnc(-n3cncn3)nc2N2CCOCC2)o1`, the EC50 was > 800 nM.
With `Cc1nc(N2CCOCC2)c(-c2nnc(N[C@H]3N=C(c4ccccc4)c4ccccc4NC3=O)o2)cc1C#N` the EC50 was < 400 nM.
With `O=C1Nc2ccccc2C(c2ccccc2)=N[C@@H]1Nc1nnc(-c2cnc(N3CCOCC3)nc2)o1` the EC50 was “in the range around 600 nM”.
For `O=C1Nc2ccccc2C(c2ccccc2)=N[C@@H]1Nc1nnc(-c2ccc(C(F)(F)F)cc2N2CCOCC2)o1`, the EC50 was < 400 nM.
In the case of `O=C1Nc2ccccc2C(c2ccccc2)=NC1Nc1nnc(-c2c(F)cc(N3CCOCC3)cc2F)o1` (configuration not stated), the EC50 is reported as > 800 nM.
With `CC1(c2nnc(NC3N=C(c4ccccc4)c4ccccc4NC3=O)o2)CC1` (configuration not stated) the EC50 was > 800 nM.
In the case of `NNC(=O)c1cc(F)cnc1N1CCOCC1`, the EC50 is reported as “in the range around 600 nM”.
With `O=C1Nc2ccccc2C(c2ccccc2)=N[C@@H]1Nc1nnc(-c2cnc(-n3cccn3)nc2N2CCOCC2)o1` the EC50 was > 800 nM.
With `CN(C)c1ccc(-c2nnc(NC3N=C(c4ccccc4)c4ccccc4NC3=O)o2)nc1` (configuration not stated) the EC50 was > 800 nM.
For `N#CCCc1nnc(NC2N=C(c3ccccc3)c3ccccc3NC2=O)o1` (configuration not stated), the EC50 was > 800 nM.
In the case of `N#Cc1cnc(-c2nnc(NC3N=C(c4ccccc4)c4ccccc4NC3=O)o2)c(N2CCOCC2)c1` (configuration not stated), the EC50 is reported as < 400 nM.
For `O=C1Nc2ccccc2C(c2ccccc2)=NC1Nc1nnc(-c2cccnc2N2CCOCC2)o1` (configuration not stated), the EC50 was < 400 nM.
With `O=C1Nc2ccccc2C(c2ccccc2)=NC1Nc1nnc(-c2ccc(N3CCOCC3)c(F)c2)o1` (configuration not stated) the EC50 was > 800 nM.
In the case of `Cn1cc(-c2nnc(N[C@H]3N=C(c4ccccc4)c4ccccc4NC3=O)o2)c(N2CCOCC2)n1`, the EC50 is reported as < 400 nM.
In the case of `O=C1Nc2ccccc2C(c2ccccc2)=NC1Nc1nnc(-c2ccc(C(F)(F)F)cc2N2CCOCC2)o1` (configuration not stated), the EC50 is reported as < 400 nM.
With `CCOC(=O)c1nc2ccccn2c1N` the EC50 was > 800 nM.
For `O=C1Nc2ccccc2C(c2ccccc2)=NC1Nc1nc2c(F)cccc2o1` (configuration not stated), the EC50 was > 800 nM.
In the case of `CS(=O)(=O)Cc1nnc(NC2N=C(c3ccccc3)c3ccccc3NC2=O)o1` (configuration not stated), the EC50 is reported as > 800 nM.
For `N#Cc1ccc(-c2nnc(N[C@H]3N=C(c4ccccc4)c4ccccc4NC3=O)o2)c(N2CCOCC2)c1`, the EC50 was < 400 nM.
For `Cc1ccc2oc(NC3N=C(c4ccccc4)c4ccccc4NC3=O)nc2c1` (configuration not stated), the EC50 was > 800 nM.
With `O=C1Nc2ccccc2C(c2ccccc2)=NC1Nc1nnc(-c2ccc(N3CCOCC3)cn2)o1` (configuration not stated) the EC50 was > 800 nM.
For `COCCNc1ccc(-c2nnc(NC3N=C(c4ccccc4)c4ccccc4NC3=O)o2)cc1` (configuration not stated), the EC50 was > 800 nM.
With `O=C(O)c1cnc(C(F)(F)F)nc1N1CCOCC1` the EC50 was < 400 nM.
With `O=C1Nc2ccccc2C(c2ccccc2)=N[C@@H]1Nc1nnc(-c2ccc(F)nc2N2CCOCC2)o1` the EC50 was < 400 nM.
For `Cn1ncc(N2CCOCC2)c1-c1nnc(N[C@H]2N=C(c3ccccc3)c3ccccc3NC2=O)o1`, the EC50 was “in the range around 600 nM”.
For `COC(=O)c1ccc(Cl)nc1N1CCOCC1`, the EC50 was < 400 nM.
With `COc1ccc(CN2C(=O)C(C)(N=[N+]=[N-])N=C(c3ccccc3)c3ccccc32)cc1` (configuration not stated) the EC50 was > 800 nM.
With `COC(=O)c1cc(Br)c(C2CC2)nc1Cl` the EC50 was < 400 nM.
In the case of `N#Cc1ccc(-c2nnc(NC3N=C(c4ccccc4)c4ccccc4NC3=O)o2)s1` (configuration not stated), the EC50 is reported as < 400 nM.
With `O=C1Nc2ccccc2C(c2ccccc2)=NC1Nc1nnc(-c2ncc(N3CCOCC3)cc2Cl)o1` (configuration not stated) the EC50 was > 800 nM.
With `O=C1Nc2ccccc2C(c2ccccc2)=NC1Nc1nnc(-c2ccc(N3CCOCC3)cc2Cl)o1` (configuration not stated) the EC50 was > 800 nM.
With `O=C1Nc2ccccc2C(c2ccccc2)=NC1Nc1nnc(-c2cnccc2N2CCCCC2)o1` (configuration not stated) the EC50 was > 800 nM.
In the case of `Cc1cc(-c2nnc(NC3N=C(c4ccccc4)c4ccccc4NC3=O)o2)ccc1N1CCOCC1` (configuration not stated), the EC50 is reported as “in the range around 600 nM”.
In the case of `COc1ccc(-c2nnc(NC3N=C(c4ccccc4)c4ccccc4NC3=O)o2)nc1Cl` (configuration not stated), the EC50 is reported as > 800 nM.
With `N#Cc1ccc(-c2nnc(NC3N=C(c4ccccc4)c4ccccc4NC3=O)o2)c(N2CCOCC2)c1` (configuration not stated) the EC50 was < 400 nM.
In the case of `CS(=O)(=O)c1ccc(-c2nnc(NC3N=C(c4ccccc4)c4ccccc4NC3=O)o2)nc1` (configuration not stated), the EC50 is reported as > 800 nM.
In the case of `Cc1nc2ccc(-c3nnc(NC4N=C(c5ccccc5)c5ccccc5NC4=O)o3)cc2s1` (configuration not stated), the EC50 is reported as “in the range around 600 nM”.
For `O=C1Nc2ccccc2C(c2ccccc2)=N[C@@H]1Nc1nnc(-c2ncc(Br)cc2N2CCOCC2)o1`, the EC50 was < 400 nM.
For `CS(=O)(=O)c1ccc(-c2nnc(NC3N=C(c4ccccc4)c4ccccc4NC3=O)o2)c(N2CCOCC2)c1` (configuration not stated), the EC50 was > 800 nM.
For `Cn1ncc(-c2nnc(N[C@H]3N=C(c4ccccc4)c4ccccc4NC3=O)o2)c1N1CCOCC1`, the EC50 was > 800 nM.
With `COc1cnc(-c2nnc(NC3N=C(c4ccccc4)c4ccccc4NC3=O)o2)c(F)c1` (configuration not stated) the EC50 was > 800 nM.
For `O=C1Nc2ccccc2C(c2ccccc2)=NC1Nc1nc2ccccc2s1` (configuration not stated), the EC50 was > 800 nM.
In the case of `O=C1Nc2ccccc2C(c2ccccc2)=NC1Nc1nnc(-c2ccc(C(F)(F)F)nc2N2CCOCC2)o1` (configuration not stated), the EC50 is reported as “in the range around 600 nM”.
For `CCOC(=O)c1c(F)cc(F)cc1F`, the EC50 was > 800 nM.
For `O=C1Nc2ccccc2C(c2ccccc2)=NC1Nc1nnc(-c2ccc(NC3CCCCC3)cc2)o1` (configuration not stated), the EC50 was > 800 nM.
In the case of `CCOC(=O)c1ccc(F)cc1N1CCOCC1`, the EC50 is reported as < 400 nM.
In the case of `O=C1Nc2ccccc2C(c2ccccc2)=NC1Nc1nnc(-c2cccc(N3CCOCC3)c2)o1` (configuration not stated), the EC50 is reported as > 800 nM.
In the case of `CCOC(=O)c1ccc(C2CC2)nc1Cl`, the EC50 is reported as < 400 nM.
For `CC(C)(C)c1nnc(NC2N=C(c3ccccc3)c3ccccc3NC2=O)o1` (configuration not stated), the EC50 was > 800 nM.
With `Cn1nnc(-c2ccc(-c3nnc(NC4N=C(c5ccccc5)c5ccccc5NC4=O)o3)cc2)n1` (configuration not stated) the EC50 was > 800 nM.
For `CCOC(=O)c1ncccc1N1CCOCC1`, the EC50 was < 400 nM.
For `O=C1Nc2ccccc2C(c2ccccc2)=NC1Nc1nnc(-c2nccnc2N2CCOCC2)o1` (configuration not stated), the EC50 was < 400 nM.
For `O=C1Nc2ccccc2C(c2ccccc2)=NC1Nc1nnc(-c2cc(C(F)(F)F)cnc2N2CCOCC2)o1` (configuration not stated), the EC50 was > 800 nM.
